Assay results: ChEMBL document CHEMBL1131476, “Synthesis of a methylenebis(phosphonate) analogue of mycophenolic adenine dinucleotide: a glucuronidation-resistant MAD analogue of NAD” (J Med Chem, 1998)

Columns and labels:
K562 = assay: Inhibitory activity against growth of human erythroleukemia […] cells; type: functional, cell-based
[1] = biological target: Inosine-5'-monophosphate dehydrogenase 1 (Homo sapiens, UniProt P20839); assay: Inhibitory activity against human Inosine-5'-monophosphate dehydrogenase 1 (IMPDH type I isoform); Range is 33-37 nM
Inosine-5'-monophosphate dehydrogenase 1, sequence (P20839 whole entry, canonical isoform): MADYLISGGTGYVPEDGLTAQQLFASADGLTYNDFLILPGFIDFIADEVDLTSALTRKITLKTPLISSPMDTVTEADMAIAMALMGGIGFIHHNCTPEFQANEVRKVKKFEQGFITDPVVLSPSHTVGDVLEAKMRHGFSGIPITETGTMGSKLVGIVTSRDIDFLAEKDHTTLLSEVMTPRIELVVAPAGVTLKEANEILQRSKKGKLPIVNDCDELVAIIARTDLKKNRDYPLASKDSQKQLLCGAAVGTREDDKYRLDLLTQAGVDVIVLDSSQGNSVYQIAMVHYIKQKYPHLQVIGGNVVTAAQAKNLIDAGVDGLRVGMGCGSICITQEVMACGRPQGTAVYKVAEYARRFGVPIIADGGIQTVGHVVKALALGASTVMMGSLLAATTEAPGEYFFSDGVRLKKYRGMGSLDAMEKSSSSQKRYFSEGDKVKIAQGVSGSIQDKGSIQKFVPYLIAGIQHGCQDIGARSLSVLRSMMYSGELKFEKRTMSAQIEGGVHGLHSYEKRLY

[2] = biological target: Inosine-5'-monophosphate dehydrogenase 2 (Homo sapiens, UniProt P12268); assay: Inhibitory activity against human Inosine-5'-monophosphate dehydrogenase 2 (IMPDH type II isoform)

| IC50 (K562) | Ki [2] | SMILES | Ki [1] |
| --- | --- | --- | --- |
| 1500 nM | 300 nM | COc1c(C)c2c(c(O)c1C/C=C(\C)CCCOP(=O)(O)CP(=O)(O)OC[C@@H]1OC(n3cnc4c(N)ncnc43)[C@@H](O)[C@H]1O)C(=O)OC2 (stereo not given in full) |  |
| 1500 nM |  | COc1c(C)c2c(c(O)c1C/C=C(\C)CCCO)C(=O)OC2 |  |

| SMILES | IC50 (K562) | Ki [2] | Ki [1] |
| --- | --- | --- | --- |
| COc1c(C)c2c(c(O)c1C/C=C(\C)CCC(=O)O)C(=O)OC2 [MYCOPHENOLIC ACID] | 80 nM |  | 33 nM |
